Earlier results on one compound are cited in article PMC8342870 (International Journal of Biological Macromolecules, 2021).

Each structure is given as a SMILES string.

The series deals with SARS-CoV-2 PLpro (Severe acute respiratory syndrome coronavirus 2, UniProt P0DTD1). The following applies: previous work ref 29.

As to `CN1C[C@H](C(=O)N[C@]2(C)O[C@@]3(O)[C@@H]4CCCN4C(=O)[C@H](Cc4ccccc4)N3C2=O)C=C2c3cccc4[nH]cc(c34)C[C@H]21` [ergotamine], the “reported rigid docking score” value was -9.2 kcal/mol.
